Test results from the NIST ThermoML archive (doi:10.1016/j.jct.2013.01.032).

Assays:
[1] = mn = molality of the nth substance listed, in mol/kg; conditions: 101 kPa, Liquid; for speed of sound: Sing-around technique in a fixed-path interferometer; for mass density: Vibrating tube method
[2] = osmotic coefficient (dimensionless); mn = molality of the nth substance listed, in mol/kg; conditions: 323.15 K, Liquid, Knauer Osmometer

CCCCn1cc[n+](C)c1.O=S(=O)([O-])C(F)(F)F [1-butyl-3-methylimidazolium trifluoromethanesulfonate] + CC(C)O
[1]
Conditions | mass density, 293.15 K [kg/m3] | mass density, 308.15 K [kg/m3] | mass density, 323.15 K [kg/m3] | speed of sound, 293.15 K [m/s] | speed of sound, 308.15 K [m/s] | speed of sound, 323.15 K [m/s]
m1 = 0.049 | 789.81 | 777.07 | 763.51 | 1158.3 | 1106.4 | 1053.4
m1 = 0.1 | 794.52 | 781.8 | 768.29 | 1159.5 | 1108 | 1055.5
m1 = 0.152 | 799.18 | 786.48 | 772.99 | 1160.9 | 1109.6 | 1057.4
m1 = 0.207 | 804.09 | 791.39 | 777.93 | 1162.6 | 1111.2 | 1059.3
m1 = 0.254 | 808.1 | 795.41 | 781.98 | 1163.3 | 1112.5 | 1060.8
m1 = 0.51 | 828.98 | 816.33 | 803.01 | 1168.6 | 1119.1 | 1068.8
m1 = 0.754 | 847.24 | 834.61 | 821.37 | 1173.2 | 1124.8 | 1075.6
m1 = 1.006 | 864.73 | 852.1 | 838.92 | 1178.4 | 1130.5 | 1082.3
m1 = 1.525 | 896.77 | 884.17 | 871.1 | 1188.1 | 1142 | 1095.6
m1 = 1.758 | 910.13 | 897.53 | 884.5 | 1192.5 | 1147 | 1101.3
m1 = 2.05 | 925.34 | 912.77 | 899.8 | 1197.6 | 1153.1 | 1108.2
m1 = 2.526 | 947.75 | 935.19 | 922.28 | 1206 | 1162.5 | 1118.6
m1 = 3.011 | 967.97 | 955.42 | 942.57 | 1214.3 | 1171.5 | 1128.5

[2]
Conditions | osmotic coefficient
m1 = 0.0255 | 0.991
m1 = 0.0473 | 0.911
m1 = 0.1132 | 0.844
m1 = 0.1803 | 0.765
m1 = 0.2949 | 0.686
m1 = 0.398 | 0.624
m1 = 0.5052 | 0.588
m1 = 0.8092 | 0.518
m1 = 1.205 | 0.461
m1 = 1.615 | 0.412
m1 = 2.031 | 0.391
m1 = 2.42 | 0.381
m1 = 2.829 | 0.366
m1 = 3.326 | 0.356

CCCCn1cc[n+](C)c1.O=S(=O)([O-])C(F)(F)F [1-butyl-3-methylimidazolium trifluoromethanesulfonate] + CCC(C)O
[1]
Conditions | mass density, 293.15 K [kg/m3] | mass density, 308.15 K [kg/m3] | mass density, 323.15 K [kg/m3] | speed of sound, 293.15 K [m/s] | speed of sound, 308.15 K [m/s] | speed of sound, 323.15 K [m/s]
m1 = 0.098 | 815.49 | 802.94 | 789.53 | 1231 | 1177.6 | 1122.9
m1 = 0.149 | 819.88 | 807.37 | 794.01 | 1231.4 | 1178.3 | 1124.1
m1 = 0.201 | 824.3 | 811.78 | 798.46 | 1231.9 | 1179.2 | 1125.5
m1 = 0.249 | 828.21 | 815.73 | 802.45 | 1232 | 1179.6 | 1126.3
m1 = 0.498 | 847.84 | 835.4 | 822.26 | 1233.7 | 1182.7 | 1130.8
m1 = 1.002 | 882.87 | 870.47 | 857.52 | 1238.2 | 1189.5 | 1140.3
m1 = 1.239 | 897.53 | 885.16 | 872.26 | 1240.2 | 1192.4 | 1144
m1 = 1.522 | 913.81 | 901.44 | 888.61 | 1243.1 | 1196.2 | 1148.8
m1 = 1.763 | 926.62 | 914.26 | 901.49 | 1245.6 | 1199.4 | 1152.7
m1 = 2.497 | 961.11 | 948.77 | 936.11 | 1253.6 | 1209.2 | 1164.3
m1 = 2.935 | 978.86 | 966.54 | 953.94 | 1258.2 | 1214.5 | 1170.8

[2]
Conditions | osmotic coefficient
m1 = 0.0481 | 0.914
m1 = 0.0784 | 0.806
m1 = 0.1008 | 0.771
m1 = 0.2021 | 0.657
m1 = 0.2917 | 0.568
m1 = 0.3846 | 0.507
m1 = 0.485 | 0.472
m1 = 0.7679 | 0.428
m1 = 1.126 | 0.379
m1 = 1.523 | 0.334
m1 = 1.909 | 0.318
m1 = 2.282 | 0.31
m1 = 2.574 | 0.296
m1 = 2.994 | 0.279
m1 = 3.448 | 0.275

CCCCn1cc[n+](C)c1.O=S(=O)([O-])C(F)(F)F [1-butyl-3-methylimidazolium trifluoromethanesulfonate] + CCCCCO
[1]
Conditions | mass density, 293.15 K [kg/m3] | mass density, 308.15 K [kg/m3] | mass density, 323.15 K [kg/m3] | speed of sound, 293.15 K [m/s] | speed of sound, 308.15 K [m/s] | speed of sound, 323.15 K [m/s]
m1 = 0.048 | 818.89 | 807.86 | 796.5 | 1292.6 | 1242.7 | 1193.2
m1 = 0.103 | 823.68 | 812.65 | 801.3 | 1292.3 | 1242.7 | 1193.6
m1 = 0.203 | 832.08 | 821.04 | 809.68 | 1291.9 | 1242.7 | 1194.1
m1 = 0.246 | 835.58 | 824.54 | 813.18 | 1291.4 | 1242.6 | 1194.1
m1 = 0.746 | 872.74 | 861.58 | 850.17 | 1289 | 1242 | 1195.6
m1 = 1.014 | 890.36 | 879.13 | 867.69 | 1288.5 | 1242.2 | 1196.7
m1 = 1.517 | 919.71 | 908.4 | 896.89 | 1288.2 | 1243.4 | 1199.3
m1 = 1.778 | 933.35 | 921.98 | 910.45 | 1288.6 | 1244.5 | 1201
m1 = 2.024 | 945.34 | 933.93 | 922.38 | 1289.4 | 1245.7 | 1202.7
m1 = 2.477 | 965.54 | 954.08 | 942.49 | 1290.7 | 1248.1 | 1205.9
m1 = 2.963 | 984.77 | 973.25 | 961.63 | 1292.8 | 1250.8 | 1209.4

[2]
Conditions | osmotic coefficient
m1 = 0.0505 | 0.619
m1 = 0.0795 | 0.565
m1 = 0.1004 | 0.529
m1 = 0.2014 | 0.436
m1 = 0.3014 | 0.402
m1 = 0.406 | 0.365
m1 = 0.5071 | 0.344
m1 = 0.8272 | 0.299
m1 = 1.233 | 0.242
m1 = 1.649 | 0.224
m1 = 2.044 | 0.202
m1 = 2.446 | 0.183
m1 = 2.837 | 0.184
m1 = 3.34 | 0.184

CCCCn1cc[n+](C)c1.O=S(=O)([O-])C(F)(F)F [1-butyl-3-methylimidazolium trifluoromethanesulfonate] + CCCCO
[1]
Conditions | mass density, 293.15 K [kg/m3] | mass density, 308.15 K [kg/m3] | mass density, 323.15 K [kg/m3] | speed of sound, 293.15 K [m/s] | speed of sound, 308.15 K [m/s] | speed of sound, 323.15 K [m/s]
m1 = 0.052 | 814.31 | 802.84 | 790.99 | 1257.8 | 1207.6 | 1158.1
m1 = 0.101 | 818.63 | 807.15 | 795.31 | 1258 | 1208 | 1158.8
m1 = 0.153 | 823.08 | 811.61 | 799.78 | 1257.7 | 1208.3 | 1159.4
m1 = 0.206 | 827.53 | 816.05 | 804.22 | 1257.9 | 1208.8 | 1160.1
m1 = 0.25 | 831.16 | 819.67 | 807.85 | 1258 | 1209.1 | 1160.6
m1 = 0.504 | 851.11 | 839.58 | 827.75 | 1258 | 1210.5 | 1163.2
m1 = 0.756 | 869.28 | 857.7 | 845.85 | 1259.2 | 1212.1 | 1165.7
m1 = 1.009 | 886.03 | 874.41 | 862.55 | 1260.2 | 1213.9 | 1168.4
m1 = 1.262 | 901.54 | 889.89 | 878.01 | 1261 | 1215.8 | 1171
m1 = 1.508 | 915.57 | 903.89 | 892 | 1262.4 | 1217.9 | 1173.7
m1 = 1.758 | 928.83 | 917.11 | 905.21 | 1263.9 | 1219.9 | 1176.4
m1 = 1.989 | 940.32 | 928.56 | 916.64 | 1265.8 | 1222 | 1179
m1 = 2.486 | 962.85 | 951.04 | 939.1 | 1269.5 | 1226.6 | 1184.5
m1 = 2.979 | 982.55 | 970.73 | 958.77 | 1273.1 | 1231.2 | 1189.8

[2]
Conditions | osmotic coefficient
m1 = 0.0481 | 0.84
m1 = 0.1053 | 0.618
m1 = 0.2108 | 0.512
m1 = 0.3131 | 0.457
m1 = 0.4049 | 0.425
m1 = 0.4947 | 0.403
m1 = 0.8149 | 0.36
m1 = 1.216 | 0.323
m1 = 1.613 | 0.301
m1 = 2.036 | 0.28
m1 = 2.425 | 0.268
m1 = 2.82 | 0.27
m1 = 3.311 | 0.259

CCCCn1cc[n+](C)c1.O=S(=O)([O-])C(F)(F)F [1-butyl-3-methylimidazolium trifluoromethanesulfonate] + CCCO
[1]
Conditions | mass density, 293.15 K [kg/m3] | mass density, 308.15 K [kg/m3] | mass density, 323.15 K [kg/m3] | speed of sound, 293.15 K [m/s] | speed of sound, 308.15 K [m/s] | speed of sound, 323.15 K [m/s]
m1 = 0.05 | 808.59 | 796.51 | 784.03 | 1225.2 | 1174.1 | 1123.8
m1 = 0.101 | 813.12 | 801.04 | 788.57 | 1225.9 | 1175.1 | 1125.1
m1 = 0.15 | 817.38 | 805.31 | 792.86 | 1226.2 | 1176 | 1126.3
m1 = 0.2 | 821.64 | 809.57 | 797.12 | 1226.7 | 1176.8 | 1127.3
m1 = 0.25 | 825.82 | 813.75 | 801.31 | 1227.4 | 1177.6 | 1128.4
m1 = 0.758 | 864.71 | 852.6 | 840.18 | 1232.4 | 1184.8 | 1137.7
m1 = 1.004 | 881.36 | 869.23 | 856.81 | 1235 | 1188.2 | 1141.9
m1 = 1.258 | 897.18 | 885.04 | 872.62 | 1237.6 | 1191.7 | 1146.2
m1 = 1.524 | 912.6 | 900.41 | 887.99 | 1241.2 | 1195.4 | 1150.5
m1 = 1.771 | 925.96 | 913.75 | 901.33 | 1243.6 | 1198.7 | 1154.5
m1 = 2.021 | 938.44 | 926.22 | 913.81 | 1246.4 | 1202 | 1158.4
m1 = 2.517 | 960.93 | 948.73 | 936.31 | 1251.9 | 1208.4 | 1165.7
m1 = 3.011 | 981.02 | 968.77 | 956.37 | 1257.1 | 1214.8 | 1172.9

[2]
Conditions | osmotic coefficient
m1 = 0.0299 | 0.906
m1 = 0.0473 | 0.817
m1 = 0.0849 | 0.775
m1 = 0.0975 | 0.755
m1 = 0.2019 | 0.66
m1 = 0.2968 | 0.612
m1 = 0.4022 | 0.575
m1 = 0.5062 | 0.549
m1 = 0.8045 | 0.494
m1 = 1.206 | 0.445
m1 = 1.64 | 0.412
m1 = 2.044 | 0.39
m1 = 2.44 | 0.378
m1 = 2.829 | 0.361
m1 = 3.316 | 0.34
